Key:
Type in all cases: cell-based
[1] = tested on: herpes simplex virus type 1 (HF strain); test: Control of CPE (cytopathic effect) manifestation in vero cells; parameters: key to Cytopathic effect [CPE] (3days) Average / Cytopathic effect [CPE] (5days) Average / Cytopathic effect [CPE] (6days) Average: CPE score: 0 none, 0.5 minute spots, 1 = 25%, 2 = 50%, 3 = ≥75% cells; key to Cytopathic effect [CPE] (3days) △CPE / Cytopathic effect [CPE] (5days) △CPE / Cytopathic effect [CPE] (3days) ΔCPE / Cytopathic effect [CPE] (6days) ΔCPE: ΔCPE = difference of average CPE score (0–3 scale) from control; conditions: for Cytopathic effect [CPE] (3days) △CPE / Cytopathic effect [CPE] (5days) △CPE / Cytopathic effect [CPE] (3days) ΔCPE / Cytopathic effect [CPE] (6days) ΔCPE: difference from control
Procedure: In vitro antiviral activity of Compound A against herpes simplex virus type 1 (HF strain) Compound A was tested for antiviral effect by the following two methods.
(§1) Vero cells cultured and grown in a monolayer on microplates to test for cytopathic effect due to viral infection, with solutions of Compound A diluted to varying ratios and solutions of virus diluted to varying ratios added severally thereto in a volume of 0.1 ml, were cultured under the conditions of 5% CO₂ and 37°C and were examined for CPE manifestation under a microscope. The observation was continued for five to six days.
(§2) The degree of CPE brought about by viral infection was rated on the five-point scale, wherein 3 stands for CPE observed on not less than 75% of cultured cells, 2 for CPE observed on 50% of cultured cells, 1 for CPE observed on 25% of cultured cells, 0.5 for occurrence of one to two extremely minute DPE spots, and 0 for perfect absence of recognizable CPE. The CPE scores obtained at the four holes in each microplate were averaged and the difference of the average from the average obtained in the control (omitting the treatment with a chemical) was reported as ΔCPE.
In vitro antiviral effect of Compound A against herpes simplex virus type 1 (HF strain) The test was carried out by following the procedure of Example 3.

[2] = tested on: herpes simplex virus type 1 (KOS strain); test: as above; conditions: HSV-1 (KOS), Example 7; for Cytopathic effect [CPE] (3days) △CPE / Cytopathic effect [CPE] (5days) △CPE: difference from control
Procedure: as §1, §2
(§3) Antiviral activity of Compound A and Compound B against herpes simplex virus type 1 (KOS strain) The test was carried out by following the procedure of Example 3.

[3] = tested on: herpes simplex virus type 1 (KOS strain); test: One-step growth of virus, plaque assay with vero cells; conditions: for Intracellular virus Average / Intracellular virus Control ratio % / Intracellular virus Control ratio -logT/C: 24 hours
Procedure: Antiviral activity of Compound A and Compound B against one-step growth of herpes simplex virus type 1 (KOS strain) Cells grown in a monolayer, with a sample of a given compound diluted in a varying ratio added, were pretreated for 15 minutes. Then, the pretreated cells were infected with the herpes simplex virus type 1 (KOS strain) at an infecting ratio of 0.25 and left standing for 24 hours. At the end of the standing, the intracellular and extracellular amounts of virus were determined by the plaque assay with vero cells.

[4] = tested on: herpes simplex virus type 1 (KOS strain); test: 50% Tissue culture infective dose (TCID50), Read-Munch method, negative logarithm of virus dilution; parameters: key to Cytopathic effect [CPE] (5days) TCID50 / Cytopathic effect [CPE] (3days) TCID50: TCID50 as negative log of maximum virus dilution ratio; key to Cytopathic effect [CPE] (5days) △TCID50 / Cytopathic effect [CPE] (3days) △TCID50: difference from control TCID50, in negative log of virus dilution; conditions: HSV-1 (KOS), Example 7; for Cytopathic effect [CPE] (3days) △TCID50 / Cytopathic effect [CPE] (5days) △TCID50: difference from control
Procedure: (§4) The amount of virus infecting 50% of tissues (TCID₅₀) was determined by the Read-Munch method and expressed in negative logarithm of the maximum radio of dilution of virus. The difference of the amount thus determined from the amount found in the control (omitting the treatment with a chemical) was reported as ΔTCID₅₀. A sample whose ΔCPE's found on the last day of observation and on each of the days spent for the observation exceeded 1.0 was evaluated as effective.
as §3

[5] = tested on: herpes simplex virus type 2 (169 strain); test: as above; parameters: key to Cytopathic effect [CPE] (5days) △TCID50 / Cytopathic effect [CPE] (6days) △TCID50 / Cytopathic effect [CPE] (3days) △TCID50: difference in -log TCID50 from untreated control; key to Cytopathic effect [CPE] (5days) TCID50 / Cytopathic effect [CPE] (3days) TCID50 / Cytopathic effect [CPE] (6days) TCID50: negative log of maximum virus dilution infecting 50% of tissues; conditions: HSV-2 (169); for Cytopathic effect [CPE] (3days) △TCID50 / Cytopathic effect [CPE] (5days) △TCID50 / Cytopathic effect [CPE] (6days) △TCID50: difference from control
Procedure: as §4
In vitro antiviral activity of Compound A against herpes simplex virus type 2 (169 strain) The test was carried out by following the procedure of Example 3.

[6] = 10 μg/ml, HSV-1 (HF), Example 3
[7] = 20 μg/ml, HSV-1 (HF), Example 3
[8] = 50 μg/ml, HSV-1 (HF), Example 3
[9] = 100 μg/ml, HSV-1 (HF strain), Example 5
[10] = 100 μg/ml, HSV-1 (HF), Example 3
[11] = 200 μg/ml, HSV-1 (HF strain), Example 5

K₅BW₁₂O₄₀.15H₂O [Compound A]
Cytopathic effect [CPE] (3days) Average ([1]; 5 μg/ml, HSV-1 (HF), Example 3): 1.25 | Cytopathic effect [CPE] (5days) Average ([1]; 5 μg/ml, HSV-1 (HF), Example 3): 1.75 | Cytopathic effect [CPE] (3days) △CPE ([1]; 5 μg/ml, HSV-1 (HF), Example 3): 0.25 | Cytopathic effect [CPE] (5days) △CPE ([1]; 5 μg/ml, HSV-1 (HF), Example 3): 0 | Cytopathic effect [CPE] (3days) Average [1, 6]: 1.25 | Cytopathic effect [CPE] (5days) Average [1, 6]: 1.25 | Cytopathic effect [CPE] (3days) △CPE [1, 6]: 0.25 | Cytopathic effect [CPE] (5days) △CPE [1, 6]: 0.5 | Cytopathic effect [CPE] (3days) Average [1, 7]: 1.25 | Cytopathic effect [CPE] (5days) Average [1, 7]: 1.5 | Cytopathic effect [CPE] (3days) △CPE [1, 7]: 0.25 | Cytopathic effect [CPE] (5days) △CPE [1, 7]: 0.25 | Cytopathic effect [CPE] (3days) Average [1, 8]: 1.5 | Cytopathic effect [CPE] (5days) Average [1, 8]: 2.0 | Cytopathic effect [CPE] (3days) △CPE [1, 8]: 0 | Cytopathic effect [CPE] (5days) △CPE [1, 8]: 0.25 | Cytopathic effect [CPE] (3days) Average [1, 9]: 0.125 | Cytopathic effect [CPE] (6days) Average [1, 9]: 0.5 | Cytopathic effect [CPE] (3days) ΔCPE [1, 9]: 2.625 | Cytopathic effect [CPE] (6days) ΔCPE [1, 9]: 2.5 | Cytopathic effect [CPE] (3days) Average [1, 10]: 0.75 | Cytopathic effect [CPE] (5days) Average [1, 10]: 1.0 | Cytopathic effect [CPE] (3days) △CPE [1, 10]: 0.375 | Cytopathic effect [CPE] (5days) △CPE [1, 10]: 0.75 | Cytopathic effect [CPE] (3days) Average [1, 11]: 0 | Cytopathic effect [CPE] (6days) Average [1, 11]: 0 | Cytopathic effect [CPE] (3days) ΔCPE [1, 11]: 2.75 | Cytopathic effect [CPE] (6days) ΔCPE [1, 11]: 3.0 | Cytopathic effect [CPE] (3days) Average ([2]; 100 μg/ml): 0 | Cytopathic effect [CPE] (5days) Average ([2]; 100 μg/ml): 0 | Cytopathic effect [CPE] (3days) △CPE ([2]; 100 μg/ml): 2.0 | Cytopathic effect [CPE] (5days) △CPE ([2]; 100 μg/ml): 3.0 | Cytopathic effect [CPE] (3days) Average ([2]; 200 μg/ml): 0 | Cytopathic effect [CPE] (5days) Average ([2]; 200 μg/ml): 0 | Cytopathic effect [CPE] (3days) △CPE ([2]; 200 μg/ml): 2.0 | Cytopathic effect [CPE] (5days) △CPE ([2]; 200 μg/ml): 3.0 | Intracellular virus Average ([3]; 50 μg/ml, extracellular virus): 7.13×10^5 /dish | Intracellular virus Control ratio % ([3]; 50 μg/ml, extracellular virus): 97.6% | Intracellular virus Control ratio -logT/C ([3]; 50 μg/ml, extracellular virus): 1.623 | Intracellular virus Average ([3]; 50 μg/ml): 1.34×10^6 /dish | Intracellular virus Control ratio % ([3]; 50 μg/ml): 99.7% | Intracellular virus Control ratio -logT/C ([3]; 50 μg/ml): 2.482 | Intracellular virus Average ([3]; 100 μg/ml, extracellular virus): 8.38×10^4 /dish | Intracellular virus Control ratio % ([3]; 100 μg/ml, extracellular virus): 99.7% | Intracellular virus Control ratio -logT/C ([3]; 100 μg/ml, extracellular virus): 2.554 | Intracellular virus Average ([3]; 100 μg/ml): 1.99×10^6 /dish | Intracellular virus Control ratio -logT/C ([3]; 100 μg/ml): 7.211 | Intracellular virus Control ratio % ([3]; 100 μg/ml, 1440 min): >99.9% | Intracellular virus Control ratio -logT/C ([3]; 200 μg/ml, extracellular virus): 5.778 | Intracellular virus Control ratio % ([3]; 200 μg/ml, extracellular virus, 1440 min): >99.9% | Intracellular virus Control ratio -logT/C ([3]; 200 μg/ml): > 7.211 | Intracellular virus Control ratio % ([3]; 200 μg/ml, 1440 min): >99.9% | control of the intracellular and extracellular viruses in the one-step growth ([3]; concentration not given, 1440 min): not less than 99.9% | Cytopathic effect [CPE] (3days) TCID50 ([4]; 100 μg/ml): 3.5 | Cytopathic effect [CPE] (5days) TCID50 ([4]; 100 μg/ml): 3.5 | Cytopathic effect [CPE] (3days) △TCID50 ([4]; 100 μg/ml): 2.0 | Cytopathic effect [CPE] (5days) △TCID50 ([4]; 100 μg/ml): 2.5 | Cytopathic effect [CPE] (3days) TCID50 ([4]; 200 μg/ml): 3.5 | Cytopathic effect [CPE] (5days) TCID50 ([4]; 200 μg/ml): 3.5 | Cytopathic effect [CPE] (3days) △TCID50 ([4]; 200 μg/ml): 2.0 | Cytopathic effect [CPE] (5days) △TCID50 ([4]; 200 μg/ml): 2.5 | Cytopathic effect [CPE] (3days) TCID50 ([5]; 5 μg/ml, Example 4): 6.5 | Cytopathic effect [CPE] (5days) TCID50 ([5]; 5 μg/ml, Example 4): 6.7 | Cytopathic effect [CPE] (3days) △TCID50 ([5]; 5 μg/ml, Example 4): 0 | Cytopathic effect [CPE] (5days) △TCID50 ([5]; 5 μg/ml, Example 4): 0.2 | Cytopathic effect [CPE] (3days) TCID50 ([5]; 10 μg/ml, Example 4): 6.3 | Cytopathic effect [CPE] (5days) TCID50 ([5]; 10 μg/ml, Example 4): 6.3 | Cytopathic effect [CPE] (3days) △TCID50 ([5]; 10 μg/ml, Example 4): 0.2 | Cytopathic effect [CPE] (5days) △TCID50 ([5]; 10 μg/ml, Example 4): 0.2 | Cytopathic effect [CPE] (3days) TCID50 ([5]; 20 μg/ml, Example 4): 6.5 | Cytopathic effect [CPE] (5days) TCID50 ([5]; 20 μg/ml, Example 4): 6.2 | Cytopathic effect [CPE] (3days) △TCID50 ([5]; 20 μg/ml, Example 4): 0 | Cytopathic effect [CPE] (5days) △TCID50 ([5]; 20 μg/ml, Example 4): 0.3 | Cytopathic effect [CPE] (3days) TCID50 ([5]; 50 μg/ml, Example 4): 5.5 | Cytopathic effect [CPE] (5days) TCID50 ([5]; 50 μg/ml, Example 4): 5.5 | Cytopathic effect [CPE] (3days) △TCID50 ([5]; 50 μg/ml, Example 4): 1.0 | Cytopathic effect [CPE] (5days) △TCID50 ([5]; 50 μg/ml, Example 4): 1.0 | Cytopathic effect [CPE] (3days) TCID50 ([5]; 100 μg/ml, Example 4): 3.5 | Cytopathic effect [CPE] (5days) TCID50 ([5]; 100 μg/ml, Example 4): 3.5 | Cytopathic effect [CPE] (3days) △TCID50 ([5]; 100 μg/ml, Example 4): 3.0 | Cytopathic effect [CPE] (5days) △TCID50 ([5]; 100 μg/ml, Example 4): 3.0 | Cytopathic effect [CPE] (3days) TCID50 ([5]; 100 μg/ml, Example 6): < 3.5 | Cytopathic effect [CPE] (6days) TCID50 ([5]; 100 μg/ml, Example 6): < 3.5 | Cytopathic effect [CPE] (3days) △TCID50 ([5]; 100 μg/ml, Example 6): > 3.2 | Cytopathic effect [CPE] (6days) △TCID50 ([5]; 100 μg/ml, Example 6): > 3.2 | Cytopathic effect [CPE] (3days) TCID50 ([5]; 200 μg/ml, Example 6): < 3.5 | Cytopathic effect [CPE] (6days) TCID50 ([5]; 200 μg/ml, Example 6): < 3.5 | Cytopathic effect [CPE] (3days) △TCID50 ([5]; 200 μg/ml, Example 6): > 3.2 | Cytopathic effect [CPE] (6days) △TCID50 ([5]; 200 μg/ml, Example 6): > 3.2

From patent publication EP0450065A1, “ANTIVIRAL AGENT” (priority 1988, dated 1990)
